Measured values published in patent US20240158446A1, “CYCLIC COMPOUND HAVING SELECTIVE INHIBITORY ACTION ON KRAS OVER HRAS AND NRAS” (CHUGAI SEIYAKU KABUSHIKI KAISHA, priority 2021, published 2024).
pKd: −log10 of the molar value.

Experiments:
[1] = target: GDP-bound NRAS wild-type protein (Homo sapiens, UniProt P01111); test: Binding to NRAS by surface plasmon resonance (SPR), Single Cycle Kinetics; conditions: ratio of KD for GDP-bound NRAS wild-type protein to KD for KRAS, SPR
[2] = target: GDP-bound HRAS wild-type protein (Homo sapiens, UniProt P01112); test: Binding to HRAS by surface plasmon resonance (SPR), Single Cycle Kinetics; conditions: ratio of KD for GDP-bound HRAS wild-type protein to KD for KRAS, SPR
Sequence of GDP-bound HRAS wild-type protein (P01112 whole entry): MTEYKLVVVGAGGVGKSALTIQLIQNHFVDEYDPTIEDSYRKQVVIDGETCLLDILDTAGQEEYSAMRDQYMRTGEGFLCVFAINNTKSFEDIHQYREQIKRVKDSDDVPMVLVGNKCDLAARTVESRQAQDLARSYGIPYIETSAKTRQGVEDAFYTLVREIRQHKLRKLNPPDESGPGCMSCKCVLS

[3] = tested on: human lung cancer strain NCI-H441; test: cells; conditions: NCI-H441, 96 h, read-out: NCI-H441 IC50 (nM), NCI-H441 cell proliferation, 4 days, CellTiter-Glo;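 note: cell proliferation inhibition after four days measured by CellTiter-Glo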
[4] = target: GDP-bound KRAS wild-type protein (Homo sapiens, UniProt P01116); test: Binding to KRAS by surface plasmon resonance (SPR), Single Cycle Kinetics; conditions: SPR, Single Cycle Kinetics, GDP-bound KRAS wild-type protein; read-out: KRAS KD
Sequence of GDP-bound KRAS wild-type protein (P01116 whole entry): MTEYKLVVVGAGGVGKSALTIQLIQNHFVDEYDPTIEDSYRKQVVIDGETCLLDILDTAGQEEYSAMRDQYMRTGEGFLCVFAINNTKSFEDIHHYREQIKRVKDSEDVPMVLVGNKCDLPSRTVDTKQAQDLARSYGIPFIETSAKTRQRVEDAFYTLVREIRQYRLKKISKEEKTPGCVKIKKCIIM

Sequence of GDP-bound NRAS wild-type protein (P01111 whole entry): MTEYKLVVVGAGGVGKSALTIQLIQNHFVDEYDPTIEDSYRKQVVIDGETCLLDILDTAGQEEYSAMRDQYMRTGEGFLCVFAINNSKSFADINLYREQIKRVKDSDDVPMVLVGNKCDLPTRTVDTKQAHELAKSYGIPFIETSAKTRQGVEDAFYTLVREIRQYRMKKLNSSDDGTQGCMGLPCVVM

SMILES	IC50 [3] [nM]	pKd [4]	NRAS/KRAS (KD ratio) [1]	HRAS/KRAS (KD ratio) [2]
CCCOC[C@H]1C(=O)N[C@@H]([C@@H](C)CC)C(=O)N(C)CC(=O)N(C)[C@H]2C/C=C\CCN(C2=O)[C@@H](Cc2ccc(C(F)(F)F)cc2)C(=O)N(C)CC(=O)N[C@@H](CCc2cc(F)c(C(F)(F)F)c(F)c2)C(=O)N2CC(F)(F)C[C@H]2C(=O)NC2(CC(C)(C)C2)C(=O)N(C)[C@@H](C2CCCC2)C(=O)N(C)[C@H](C(=O)N(C)C)CC(=O)N1C [PP1718]	2.5	10.17	AA (a compound having 20 or more is denoted as AA)	A (a compound having 10 or more and less than 20 is denoted as A)
CCCN(C)C(=O)[C@@H]1CC(=O)N(C)[C@@H](CC(F)F)C(=O)N[C@@H]([C@@H](C)CC)C(=O)N(C)CC(=O)N(C)[C@H]2C/C=C\CCN(C2=O)[C@@H](Cc2ccc(C(F)(F)F)cc2)C(=O)N(C)CC(=O)N[C@@H](CCc2cc(F)c(C(F)(F)F)c(F)c2)C(=O)N2CCC[C@H]2C(=O)NC2(CC(C)(C)C2)C(=O)N(C)[C@@H](C2CCCC2)C(=O)N1C [PP1721]	10	9.52	A (a compound having 10 or more and less than 20 is denoted as A)	A (a compound having 10 or more and less than 20 is denoted as A)
CC[C@H](C)[C@@H]1NC(=O)[C@H](CC(C)C)N(C)C(=O)C[C@@H](C(=O)N(C)C)N(C)C(=O)[C@H](C2CCCC2)N(C)C(=O)C2(CC(C)(C)C2)NC(=O)[C@@H]2CCCN2C(=O)[C@H](CCc2cc(F)c(C(F)(F)F)c(F)c2)NC(=O)CN(C)C(=O)[C@H](Cc2ccc(C(F)(F)F)cc2)N2CC/C=C\C[C@@H](C2=O)N(C)C(=O)CN(C)C1=O [PP1727]	4	9.89	A (a compound having 10 or more and less than 20 is denoted as A)	A (a compound having 10 or more and less than 20 is denoted as A)
CC[C@H](C)[C@@H]1NC(=O)[C@H](CC2CCC2)N(C)C(=O)C[C@@H](C(=O)N(C)C)N(C)C(=O)[C@H](C2CCCC2)N(C)C(=O)C2(CC(C)(C)C2)NC(=O)[C@@H]2CCCN2C(=O)[C@H](CCc2cc(F)c(C(F)(F)F)c(F)c2)NC(=O)CN(C)C(=O)[C@H](Cc2ccc(C(F)(F)F)cc2)N2CC/C=C\C[C@@H](C2=O)N(C)C(=O)CN(C)C1=O [PP1728]	18.3	9.80	A (a compound having 10 or more and less than 20 is denoted as A)	A (a compound having 10 or more and less than 20 is denoted as A)
CCCN(C)C(=O)[C@@H]1CC(=O)N(C)[C@@H](CC)C(=O)N[C@@H]([C@@H](C)CC)C(=O)N(C)CC(=O)N(C)[C@H]2C/C=C\CCN(C2=O)[C@@H](Cc2ccc(C(F)(F)F)cc2)C(=O)N(C)CC(=O)N[C@@H](CCc2cc(F)c(C(F)(F)F)c(F)c2)C(=O)N2C[C@H](OCC)C[C@H]2C(=O)NC2(CC(F)(F)C2)C(=O)N(C)[C@@H](C2CCCC2)C(=O)N1C [PP1732]	6.4	10.00	AA (a compound having 20 or more is denoted as AA)	A (a compound having 10 or more and less than 20 is denoted as A)
CCCN(C)C(=O)[C@@H]1CC(=O)N(C)[C@@H](CC(F)(F)F)C(=O)N[C@@H]([C@@H](C)CC)C(=O)N(C)CC(=O)N(C)[C@H]2C/C=C\CCN(C2=O)[C@@H](Cc2ccc(C(F)(F)F)cc2)C(=O)N(C)CC(=O)N[C@@H](CCc2cc(F)c(C(F)(F)F)c(F)c2)C(=O)N2C[C@H](OCC)C[C@H]2C(=O)NC2(CC(F)(F)C2)C(=O)N(C)[C@@H](C2CCCC2)C(=O)N1C [PP1734]	4.4	9.77	A (a compound having 10 or more and less than 20 is denoted as A)	A (a compound having 10 or more and less than 20 is denoted as A)
CCC[C@H]1C(=O)N[C@@H]([C@@H](C)CC)C(=O)N(C)CC(=O)N(C)[C@H]2C/C=C\CCN(C2=O)[C@@H](Cc2ccc(C(F)(F)F)cc2)C(=O)N(C)CC(=O)N[C@@H](CCc2cc(F)c(C(F)(F)F)c(F)c2)C(=O)N2C[C@H](OCC)C[C@H]2C(=O)NC2(CC(F)(F)C2)C(=O)N(C)[C@@H](C2CCCC2)C(=O)N(C)[C@H](C(=O)N(C)CC)CC(=O)N1C [PP1735]	2.2	10.09	AA (a compound having 20 or more is denoted as AA)	A (a compound having 10 or more and less than 20 is denoted as A)
C#CC[C@H]1C(=O)N[C@@H]([C@@H](C)CC)C(=O)N(C)CC(=O)N(C)[C@H]2C/C=C\CCN(C2=O)[C@@H](Cc2ccc(C(F)(F)F)cc2)C(=O)N(C)CC(=O)N[C@@H](CCc2cc(F)c(C(F)(F)F)c(F)c2)C(=O)N2C[C@H](OCC)C[C@H]2C(=O)NC2(CC(F)(F)C2)C(=O)N(C)[C@@H](C2CCCC2)C(=O)N(C)[C@H](C(=O)N(C)CCC)CC(=O)N1C [PP1737]	2.7	9.96	A (a compound having 10 or more and less than 20 is denoted as A)	A (a compound having 10 or more and less than 20 is denoted as A)
CCO[C@@H]1C[C@H]2C(=O)NC3(CC(F)(F)C3)C(=O)N(C)[C@@H](C3CCCC3)C(=O)N(C)[C@H](C(=O)N(C)CC)CC(=O)N(C)[C@@H](CC3CC3)C(=O)N[C@@H]([C@@H](C)CC)C(=O)N(C)CC(=O)N(C)[C@H]3C/C=C\CCN(C3=O)[C@@H](Cc3ccc(C(F)(F)F)cc3)C(=O)N(C)CC(=O)N[C@@H](CCc3cc(F)c(C(F)(F)F)c(F)c3)C(=O)N2C1 [PP1738]	5.1	10.15	AA (a compound having 20 or more is denoted as AA)	A (a compound having 10 or more and less than 20 is denoted as A)
CCCN(C)C(=O)[C@@H]1CC(=O)N(C)[C@@H](CC2CC2)C(=O)N[C@@H]([C@@H](C)CC)C(=O)N(C)CC(=O)N(C)[C@H]2C/C=C\CCN(C2=O)[C@@H](Cc2ccc(C(F)(F)F)cc2)C(=O)N(C)CC(=O)N[C@@H](CCc2cc(F)c(C(F)(F)F)c(F)c2)C(=O)N2C[C@H](OCC)C[C@H]2C(=O)NC2(CC(F)(F)C2)C(=O)N(C)[C@@H](C2CCCC2)C(=O)N1C [PP1739]	5.5	10.27	AA (a compound having 20 or more is denoted as AA)	AA (a compound having 20 or more is denoted as AA)

Further compounds by falling IC50 [3], results first:

IC50 [3] [nM]	pKd [4]	SMILES	NRAS/KRAS (KD ratio) [1]	HRAS/KRAS (KD ratio) [2]
20.6	9.70	CCCN(C)C(=O)[C@@H]1CC(=O)N(C)[C@@H](COC)C(=O)N[C@@H]([C@@H](C)CC)C(=O)N(C)CC(=O)N(C)[C@H]2C/C=C\CCN(C2=O)[C@@H](Cc2ccc(C(F)(F)F)cc2)C(=O)N(C)CC(=O)N[C@@H](CCc2cc(F)c(C(F)(F)F)c(F)c2)C(=O)N2CCC[C@H]2C(=O)NC2(CC(C)(C)C2)C(=O)N(C)[C@@H](C2CCCC2)C(=O)N1C [PP1729]	AA (a compound having 20 or more is denoted as AA)	A (a compound having 10 or more and less than 20 is denoted as A)
7.4	10.15	CCCN(C)C(=O)[C@@H]1CC(=O)N(C)[C@@H](C)C(=O)N[C@@H]([C@@H](C)CC)C(=O)N(C)CC(=O)N(C)[C@H]2C/C=C\CCN(C2=O)[C@@H](Cc2ccc(C(F)(F)F)cc2)C(=O)N(C)CC(=O)N[C@@H](CCc2cc(F)c(C(F)(F)F)c(F)c2)C(=O)N2C[C@H](OCC)C[C@H]2C(=O)NC2(CC(F)(F)C2)C(=O)N(C)[C@@H](C2CCCC2)C(=O)N1C [PP1731]	A (a compound having 10 or more and less than 20 is denoted as A)	A (a compound having 10 or more and less than 20 is denoted as A)
3.8	9.96	CCCN(C)C(=O)[C@@H]1CC(=O)N(C)[C@@H](CC(F)F)C(=O)N[C@@H]([C@@H](C)CC)C(=O)N(C)CC(=O)N(C)[C@H]2C/C=C\CCN(C2=O)[C@@H](Cc2ccc(C(F)(F)F)cc2)C(=O)N(C)CC(=O)N[C@@H](CCc2cc(F)c(C(F)(F)F)c(F)c2)C(=O)N2C[C@H](OCC)C[C@H]2C(=O)NC2(CC(F)(F)C2)C(=O)N(C)[C@@H](C2CCCC2)C(=O)N1C [PP1733]	A (a compound having 10 or more and less than 20 is denoted as A)	A (a compound having 10 or more and less than 20 is denoted as A)
3.6	9.89	CCC[C@H]1C(=O)N[C@@H]([C@@H](C)CC)C(=O)N(C)CC(=O)N(C)[C@H]2C/C=C\CCN(C2=O)[C@@H](Cc2ccc(C(F)(F)F)cc2)C(=O)N(C)CC(=O)N[C@@H](CCc2cc(F)c(C(F)(F)F)c(F)c2)C(=O)N2C[C@H](OCC)C[C@H]2C(=O)NC2(CC(F)(F)C2)C(=O)N(C)[C@@H](C2CCCC2)C(=O)N(C)[C@H](C(=O)N(C)CCC)CC(=O)N1C [PP1736]	A (a compound having 10 or more and less than 20 is denoted as A)	A (a compound having 10 or more and less than 20 is denoted as A)
1.8	10.22	CC[C@H](C)[C@@H]1NC(=O)[C@H](CC(F)(F)F)N(C)C(=O)C[C@@H](C(=O)N(C)C)N(C)C(=O)[C@H](C2CCCC2)N(C)C(=O)C2(CC(C)(C)C2)NC(=O)[C@@H]2CCCN2C(=O)[C@H](CCc2cc(F)c(C(F)(F)F)c(F)c2)NC(=O)CN(C)C(=O)[C@H](Cc2ccc(C(F)(F)F)cc2)N2CC/C=C\C[C@@H](C2=O)N(C)C(=O)CN(C)C1=O [PP1722]	AA (a compound having 20 or more is denoted as AA)	A (a compound having 10 or more and less than 20 is denoted as A)
